# In patent US20250223560A1, “NOX4 INHIBITOR COMPOSITIONS AND METHODS FOR REGENERATION OF DYSTROPHIC MUSCLE” (FULCRUM THERAPEUTICS, INC., priority 2022, published 2025):
# Key:
# D2.mdx mice [1] = test: 3-month GKT831 treatment of D2.mdx mice, muscle histology and immunofluorescence; format: in vivo, mouse; settings: 60 mg/kg P.O. Q.D.
# From the text: D2.mdx (Jax #013141) and D2.WT (Jax #000671) mice were originally obtained from Jackson Laboratory. The Nox4^KO:mdx mouse line was created by crossing the Nox4^tm1Klr knockout allele ((23); Jax #022996) onto the D2.mdx background for five generations, as previously reported (15). Following the second backcross, only Nox4^tm1Klr/+ mice homozygous for the DBA/2J polymorphism of […] were selected for continued line development (16). This is because both Nox4 and Ltbp4 are located on murine chromosome 7, and cross-over is required for both alleles to segregate together. At the completion of the backcrossing, Nox4 heterozygous breed pairs were mated to produce Nox4^WT:mdx and Nox4^KO:mdx littermates that were used in experiments. All mice were genotyped for Nox4 using primer sequences provided by Jackson Laboratory, and for Ltbp4 and mdx alleles using published genotyping primers (16).
# (§1) Mice were housed 3-5 mice per cage, randomly assigned into groups, provided ad libitum access to food (NIH-31 Open formulation diet; Envigo #7917), water, and enrichment, and maintained on a 12-hour light/dark system. Once daily (Q.D.) GKT831 (purchased from Ambeed, Inc.) was administered orally (P.O.) suspended at a concentration of 36 mg/mL in a vehicle consisting of sterilized sunflower seed oil (Sigma-Aldrich). […] The GKT831 treatment group received a dose of 60 mg/kg (21). All animal procedures were approved and conducted in accordance with the University of Florida IACUC and reported using the recommendations of ARRIVE guidelines.
# (§2) OCT-embedded murine tissues were cryo-sectioned at […] and fixed in 4% PFA. Immunofluorescent analysis was performed using anti-NOX4 (1:2000; Abcam #13303), anti-laminin (1:800; Novus #MAB2549), anti-vimentin (1:1000; Novus #MB300), anti-PDGFRα (1:500; R&D Systems #AF1062), anti-SMA (1:1000; Abcam #ab5694), anti-periostin (1:500, Abcam #ab14041), anti-Pax7 (1:100; R&D Systems #MAB1675), anti-Myosin X (1:800; Sigma #HPA024223) and anti-active caspase-3 (1:1000; Cell Signaling 49661) primary antibodies. Mouse tissue sections incubated with mouse monoclonal antibodies were first incubated with a solution containing donkey anti-mouse IgG AffiniPure Fab fragments (1:25 in PBS; Jackson ImmunoResearch #715-007-003) for one hour prior to blocking. Following overnight incubation in primary antibody, sections were rinsed with PBS and incubated with the appropriate species-specific secondary antibody (1:500 dilution). Lipofuscin-dependent autofluorescence was quenched using a 0.1% solution of Sudan black B following secondary antibody incubation. Slides were cover-slipped using Prolong Gold mounting reagent (Invitrogen). Images were acquired using a Leica SP8 confocal microscope. All comparative images were stained simultaneously and acquired using identical settings. Human samples were obtained through the National Disease Research Interchange (Philadelphia, PA).
# Picrosirius red staining was performed as previously described (14) following decalcification of muscle sections using Formical-2000 (StatLab). Slides were visualized with a Leica DMR microscope, and images were acquired using a Leica DFC310FX camera interfaced with Leica LAS X software. All comparative images were stained simultaneously and acquired using identical settings. Images were processed and analyzed by investigators blinded to study groups using ImageJ software, as previously described (14). Image quantification for each sample consisted of the mean value from five independent and randomly-selected fields of view for each muscle section.
# D2.mdx mice [2] = test: Seven-day GKT831 treatment of six-month-old D2.mdx mice (apoptosis, gene expression); format: in vivo, mouse; settings: gastrocnemius, 60 mg/kg, seven days, vs vehicle
# Experimental: as §1, §2
# Gene expression analysis was conducted as previously described (17) using the following mouse-specific primers: Col1a2 (forward) 5′-ATGGTGGCAGCCAGTTTGAA-3′ (SEQ ID NO: 1) and (reverse) 5′-TCCAGGTACGCAATGCTGTT-3′ (SEQ ID NO: 2); Acta2 (forward) 5′-CTACTGCCGAGCGTGAGATTGTCC-3′ (SEQ ID NO: 3) and (reverse) 5′-GAGGGCCCAGCTTCGTCGTATT-3′ (SEQ ID NO: 4); 116 (forward) 5′-AACCACGGCCTTCCCTACTTC-3′ (SEQ ID NO: 5) and (reverse) 5′-TCTGGCTTTGTCTTTCTTGTTATC-3′ (SEQ ID NO: 6); Tgfb1 (forward) 5′-GACTCTCCACCTGCAAGACCAT-3′ (SEQ ID NO: 7) and (reverse) 5′-GGGACTGGCGAGCCTTAGTT-3′ (SEQ ID NO: 8); Gapdh (forward) 5′-AGCAGGCATCTGAGGGCCCA-3′ (SEQ ID NO: 9) and (reverse) 5′-TGTTGGGGGCCGAGTTGGGA-3′ (SEQ ID NO: 10). Relative gene expression quantification was performed using the ΔΔCt method with Gapdh as the normalization gene.
# Because the presumed mechanism attributed to myofibroblast clearance has been that of promoting their apoptosis (20), a short-term study was performed to investigate acute changes in muscle that result from NOX4 inhibition.
structure (smiles),measurement,setting,value
"CN(C)c1cccc(-c2c3c(=O)n(-c4ccccc4Cl)[nH]c3cc(=O)n2C)c1 [FTX1620, Setanaxib]",localization of Pax7 cells,"D2.mdx mice [1]; D2.mdx gastrocnemius, 3 months",largely re-localized
same,muscle fibers having central nuclei,"D2.mdx mice [1]; D2.mdx gastrocnemius, 3 months",increases
same,muscle fibers with expression of myosin X,"D2.mdx mice [1]; D2.mdx gastrocnemius, 3 months",increases
same,"myofibroblast numbers (PDGFRα, vimentin, SMA labeling)","D2.mdx mice [1]; D2.mdx gastrocnemius, 3 months",significantly reduced
same,"muscle fibrosis (picrosirius red, diaphragm and gastrocnemius)","D2.mdx mice [1]; D2.mdx mice, 3 months of treatment, evaluated at 6 months of age, vs vehicle",reduced D2.mdx muscle fibrosis
same,periostin+ area,"D2.mdx mice [1]; D2.mdx muscle, 3 months",significantly reduced
same,PDGFRα+ cells positive for active Caspase-3,D2.mdx mice [2],significantly more
same,Acta2 expression,D2.mdx mice [2]; real-time PCR,decreased expression
same,Col1a2 expression,D2.mdx mice [2]; real-time PCR,decreased expression
same,Il6 expression,D2.mdx mice [2]; real-time PCR,decreased expression
same,Tgfb1 expression,D2.mdx mice [2]; real-time PCR,decreased expression
